According to ChEMBL document CHEMBL1201862, “PubChem BioAssay data set” (2004):
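48-hour exposure; five concentrations; linearly interpolated endpoints. At the GI50, growth is halved.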 Activity calls are given as the source filed them. Rule as the data show it: active = GI50 up to about 1.1 µM and inactive = higher.

Tests used:
Experiment in all cases: inhibition of tumour cell growth, NCI panel, 48 h
786-0 = system: 786-0
A498 = system: A498
A549 = system: A549
ACHN = system: ACHN
BT-549 = system: BT-549
CAKI-1 = system: CAKI-1
CCRF-CEM = system: CCRF-CEM
COLO 205 = system: COLO 205
DU-145 = system: DU-145
EKVX = system: EKVX
HCT-116 = system: HCT-116
HCT-15 = system: HCT-15
HOP-62 = system: HOP-62
HOP-92 = system: HOP-92
HT-29 = system: HT-29
Hs-578T = system: Hs-578T
IGROV-1 = system: IGROV-1
K562 = system: K562
KM12 = system: KM12
LOX IMVI = system: LOX IMVI
M14 = system: M14
MCF7 = system: MCF7
MDA-MB-231 = system: MDA-MB-231
MDA-MB-435 = system: MDA-MB-435
MOLT-4 = system: MOLT-4
Malme-3M = system: Malme-3M
NCI-H226 = system: NCI-H226
NCI-H23 = system: NCI-H23
NCI-H460 = system: NCI-H460
NCI-H522 = system: NCI-H522
NCI/ADR-RES = system: NCI/ADR-RES
OVCAR-3 = system: OVCAR-3
OVCAR-4 = system: OVCAR-4
OVCAR-5 = system: OVCAR-5
OVCAR-8 = system: OVCAR-8
PC-3 = system: PC-3
RPMI-8226 = system: RPMI-8226
RXF 393 = system: RXF 393
SF-268 = system: SF-268
SF-295 = system: SF-295
SF-539 = system: SF-539
SK-MEL-28 = system: SK-MEL-28
SK-MEL-2 = system: SK-MEL-2
SK-MEL-5 = system: SK-MEL-5
SK-OV-3 = system: SK-OV-3
SN12C = system: SN12C
SNB-19 = system: SNB-19
SNB-75 = system: SNB-75
SR = system: SR
SW-620 = system: SW-620
T47D = system: T47D
TK-10 = system: TK-10
U-251 = system: U-251
UACC-257 = system: UACC-257
UACC-62 = system: UACC-62
UO-31 = system: UO-31
HL-60 = system: HL-60

Structure (SMILES): Cc1ccc(NC(=O)COc2ccc(Cl)cc2)cc1Cl
- GI50 (786-0): 44.5 µM (inactive)
- GI50 (A498): 45.3 µM (inactive)
- GI50 (A549): 74.1 µM (inactive)
- GI50 (ACHN): 42.7 µM (inactive)
- GI50 (BT-549): 70.3 µM (inactive)
- GI50 (CAKI-1): 18.7 µM (inactive)
- GI50 (CCRF-CEM): 0.278 µM (active)
- GI50 (COLO 205): > 100 µM (inactive)
- GI50 (DU-145): > 100 µM (inactive)
- GI50 (EKVX): 46.3 µM (inactive)
- GI50 (HCT-116): 14.4 µM (inactive)
- GI50 (HCT-15): > 100 µM
- GI50 (HOP-62): 20 µM (inactive)
- GI50 (HOP-92): 51.8 µM (inactive)
- GI50 (HT-29): > 100 µM (inactive)
- GI50 (Hs-578T): 14.2 µM (inactive)
- GI50 (IGROV-1): 36.5 µM (inactive)
- GI50 (K562): > 100 µM (inactive)
- GI50 (KM12): > 100 µM (inactive)
- GI50 (LOX IMVI): 82 µM (inactive)
- GI50 (M14): 47.1 µM (inactive)
- GI50 (MCF7): > 100 µM (inactive)
- GI50 (MDA-MB-231): 15.2 µM (inactive)
- GI50 (MDA-MB-435): > 100 µM (inactive)
- GI50 (MOLT-4): > 100 µM (inactive)
- GI50 (Malme-3M): 30.5 µM (inactive)
- GI50 (NCI-H226): 31 µM (inactive)
- GI50 (NCI-H23): 19.7 µM (inactive)
- GI50 (NCI-H460): > 100 µM (inactive)
- GI50 (NCI-H522): 75.7 µM (inactive)
- GI50 (NCI/ADR-RES): 78.2 µM (inactive)
- GI50 (OVCAR-3): > 100 µM (inactive)
- GI50 (OVCAR-4): > 100 µM (inactive)
- GI50 (OVCAR-5): 68.1 µM (inactive)
- GI50 (OVCAR-8): 28.9 µM (inactive)
- GI50 (PC-3): > 100 µM (inactive)
- GI50 (RPMI-8226): 87.5 µM (inactive)
- GI50 (RXF 393): 24.7 µM (inactive)
- GI50 (SF-268): 53.1 µM (inactive)
- GI50 (SF-295): 50.5 µM (inactive)
- GI50 (SF-539): 83.6 µM (inactive)
- GI50 (SK-MEL-28): > 100 µM (inactive)
- GI50 (SK-MEL-2): > 100 µM (inactive)
- GI50 (SK-MEL-5): > 100 µM (inactive)
- GI50 (SK-OV-3): 52.4 µM (inactive)
- GI50 (SN12C): 38.2 µM (inactive)
- GI50 (SNB-19): 74.1 µM (inactive)
- GI50 (SNB-75): 59 µM (inactive)
- GI50 (SR): 10.1 µM (inactive)
- GI50 (SW-620): > 100 µM (inactive)
- GI50 (T47D): > 100 µM (inactive)
- GI50 (TK-10): 27.3 µM (inactive)
- GI50 (U-251): 27.4 µM (inactive)
- GI50 (UACC-257): 83.4 µM (inactive)
- GI50 (UACC-62): 53.3 µM (inactive)
- GI50 (UO-31): 30.3 µM (inactive)

Structure (SMILES): CCOc1nc(N)nc(C)c1/N=N/c1ccc(Cl)cc1
- GI50 (786-0): > 100 µM (inactive)
- GI50 (A549): > 100 µM (inactive)
- GI50 (ACHN): > 100 µM (inactive)
- GI50 (BT-549): 59 µM (inactive)
- GI50 (CAKI-1): > 100 µM (inactive)
- GI50 (CCRF-CEM): 41.3 µM (inactive)
- GI50 (COLO 205): > 100 µM (inactive)
- GI50 (DU-145): > 100 µM (inactive)
- GI50 (EKVX): 51.6 µM (inactive)
- GI50 (HCT-116): > 100 µM (inactive)
- GI50 (HCT-15): > 100 µM
- GI50 (HL-60): > 100 µM (inactive)
- GI50 (HOP-62): > 100 µM (inactive)
- GI50 (HOP-92): 13.7 µM (inactive)
- GI50 (HT-29): > 100 µM (inactive)
- GI50 (Hs-578T): 0.124 µM (active)
- GI50 (IGROV-1): > 100 µM (inactive)
- GI50 (K562): 48.5 µM (inactive)
- GI50 (KM12): > 100 µM (inactive)
- GI50 (LOX IMVI): > 100 µM (inactive)
- GI50 (M14): > 100 µM (inactive)
- GI50 (MCF7): > 100 µM (inactive)
- GI50 (MDA-MB-231): > 100 µM (inactive)
- GI50 (MDA-MB-435): > 100 µM (inactive)
- GI50 (MOLT-4): 10.7 µM (inactive)
- GI50 (Malme-3M): 34.4 µM (inactive)
- GI50 (NCI-H226): 20.6 µM (inactive)
- GI50 (NCI-H23): > 100 µM (inactive)
- GI50 (NCI-H460): > 100 µM (inactive)
- GI50 (NCI-H522): 69.7 µM (inactive)
- GI50 (NCI/ADR-RES): > 100 µM (inactive)
- GI50 (OVCAR-3): > 100 µM (inactive)
- GI50 (OVCAR-4): > 100 µM (inactive)
- GI50 (OVCAR-5): > 100 µM (inactive)
- GI50 (OVCAR-8): > 100 µM (inactive)
- GI50 (PC-3): 82.8 µM (inactive)
- GI50 (RPMI-8226): 25.9 µM (inactive)
- GI50 (RXF 393): > 100 µM (inactive)
- GI50 (SF-268): > 100 µM (inactive)
- GI50 (SF-295): 25.5 µM (inactive)
- GI50 (SF-539): 36.9 µM (inactive)
- GI50 (SK-MEL-28): > 100 µM (inactive)
- GI50 (SK-MEL-2): > 100 µM (inactive)
- GI50 (SK-MEL-5): 0.649 µM (active)
- GI50 (SK-OV-3): > 100 µM (inactive)
- GI50 (SN12C): 14.1 µM (inactive)
- GI50 (SNB-19): > 100 µM (inactive)
- GI50 (SNB-75): > 100 µM (inactive)
- GI50 (SR): 1.86 µM (inactive)
- GI50 (SW-620): > 100 µM (inactive)
- GI50 (T47D): 73.8 µM (inactive)
- GI50 (TK-10): > 100 µM (inactive)
- GI50 (U-251): > 100 µM (inactive)
- GI50 (UACC-257): > 100 µM (inactive)
- GI50 (UACC-62): 94.4 µM (inactive)
- GI50 (UO-31): 45 µM (inactive)
